According to patent publication US7872040B2, “Receptor blocker and vasodilator comprising indole derivative as active ingredient” (priority 2004, dated 2011):

Assays:
[1] = tested on: α2-adrenoceptor; experiment: Relaxation of clonidine-induced contraction of isolated rat thoracic aorta ring preparations (α2-receptor antagonistic and vasodilator effect); conditions: sample 10^-5 M; Wistar rat thoracic aorta rings contracted with clonidine (10^-7 M or 10^-6 M) in presence of L-NAME 10^-4 M; mean±standard error
Text: (1) Preparation of Blood Vessel
Male Wistar rats were euthanized by cervical dislocation under ether anesthesia or without anesthesia and then exsanguinated by cutting the carotid arteries. Immediately thereafter, the thoracic aortae were isolated by thoracotomy. The isolated preparations were held in Krebs-Hepes solutions [mM: NaCl, 126.9; KCl, 5.9; CaCl2, 2.36; MgCl2, 1.18; Hepes, 10.03; glucose, 11.8 (pH=7.4)] gassed with O2 (100%). The connective tissues and adipose tissues were carefully removed under a stereoscopic microscope. Then, the aortic tissue was cut into ring preparations approximately 2 mm in length to use in the experiment. The vascular endothelium was not removed.
(2) Measurement of Muscle Contractile/Relaxant Response
The blood vessel preparations were held in an organ bath (UC-5TD, UFER™ Medical Instrument, Kyoto, Japan) containing 5 ml of Normal Tyrode's solution gassed with 95% O2-5% CO2. Two stainless hooks were used to suspend the preparations. Tension changes were recorded isometrically via tension transducers (T7-8-240, ORIENTEC Co., Ltd, Tokyo, Japan; and TB-611T, NIHON KOHDEN Corp., Tokyo, Japan) and amplifiers (AP-600G and AP-621G, NIHON KOHDEN Corp., Tokyo, Japan; and MSC-2, Labo Support Corporation, Osaka, Japan). Passive tension was set to the optimum tension of 2.0 g. The composition of the Normal Tyrode's solution was as follows: (mM): NaCl, 158.3; KCl, 4.0; CaCl2, 2.0; MgCl2, 1.05; NaH2PO4, 0.42; NaHCO3, 10.0; glucose, 5.6 (pH=7.4, 37±0.5° C.).
The preparations were then incubated for 60 to 90 minutes in Normal Tyrode's solution, which was replaced with 20-minute to 30-minute intervals. To start the experiment, the preparations were first allowed to contract with a high potassium solution (high-KCl, 80 mM KCl) [composition (mM): NaCl, 82.3; KCl, 80.0; CaCl2, 2.0; MgCl2, 1.05; NaH2PO4, 0.42; NaHCO3, 10.0; glucose, 5.6 (pH=7.4)] to confirm that the preparations normally contracted. Then, the preparations were washed with a Normal Tyrode's solution, and the experiment was started.
For the purpose of evaluating the potencies of indole derivatives tested, the artery preparations were stimulated with an α2-adrenoceptor agonist clonidine hydrochloride (Wako Pure Chemical Industries, Ltd., Osaka, Japan) (10^−7 M or 10^−6 M) in the presence of an NO synthase inhibitor N^G-nitro-L-arginine methyl ester (DOJNDO Laboratories, Kumamoto, Japan) (10^−4 M) to thereby induce continuous contraction. After developed tension reached a steady-sate level, samples (indole derivatives) (10^−5 M) were administered to the bath solution. After the relaxant effects of the samples reached the maximum levels, an α2-adrenoceptor antagonist yohimbine hydrochloride (Wako Pure Chemical Industries, Ltd., Osaka, Japan) (10^−5 M) was administered to the bath solution. Relaxant response to yohimbine hydrochloride (10^−5 M) and the height of contraction immediately before sample administration were defined as the maximum relaxation (=100%) and 0%, respectively, and the relaxant effect of the samples were expressed as percentages relative to the maximum relaxation to yohimbine hydrochloride (10^−5 M).
The indole derivatives (samples Nos. 1 to 23) were dissolved in 100% dimethyl sulfoxide at a concentration of 10^−2 M just before use and administered to a 5-mL organ bath for evaluation. All the other drugs were dissolved and diluted in distilled water.
The results were expressed as mean±standard error.

[2] = Clinical report: one test subject took sample No. 16 for 9 months and was followed up; type: in vivo, human
Experimental: A test subject was allowed to take the indole derivative (N-nonanoylindole-3-ethaneamine) of the sample No. 16 for 9 months, and followed up.
Test subject: healthy, 67 kg in body weight
Information before medication: non-smoking, approximately 180 ml of sake per week, well-balanced diets (meats, vegetables, and fishes) without fatty eating. The test subject has 100% white hair and goes to a barber shop once every five weeks. Their mustaches are sparse and remain in an unobtrusive growth state by shaving approximately once every two days. They are in the habit of jogging on Sunday. Muscle ache occurs about two days after the jogging and lasts for approximately 4 days. They feel insecure in erection (ED for approximately half a year).
Dosage and administration: two doses per day, administered at 1 mg around 12 p.m. and at 1 mg around 0 a.m.

[3] = after one month, 1 mg two doses per day

## COc1ccc2[nH]cc(CCNC(C)=O)c2c1 [compound 1, N-acetyl-5-methoxyindole-3-ethaneamine, reference compound]
[1]
  Reaction (%): relaxant effect relative to the maximum relaxation to yohimbine hydrochloride (10^-5 M): 6.7 ± 6.7%

## COc1ccc2c(c1)c(CCNC(C)=O)cn2C(C)=O [compound 2, N,1-diacetyl-5-methoxyindole-3-ethaneamine]
[1]
  Reaction (%): relaxant effect relative to the maximum relaxation to yohimbine hydrochloride (10^-5 M): 18.5 ± 9.8%

## COc1ccc2[nH]cc(CCN(C(C)=O)C(C)=O)c2c1 [compound 3, N,N-diacetyl-5-methoxyindole-3-ethaneamine]
[1]
  Reaction (%): relaxant effect relative to the maximum relaxation to yohimbine hydrochloride (10^-5 M): 25.6 ± 7.5%

## COc1ccc2[nH]cc(CCNC(C)=O)c2c1Br [compound 4, N-acetyl-4-bromo-5-methoxyindole-3-ethaneamine]
[1]
  Reaction (%): relaxant effect relative to the maximum relaxation to yohimbine hydrochloride (10^-5 M): 20.3 ± 4.6%

## COc1ccc2[nH]c(Br)c(CCNC(C)=O)c2c1 [compound 5, N-acetyl-2-bromo-5-methoxyindole-3-ethaneamine]
[1]
  Reaction (%): relaxant effect relative to the maximum relaxation to yohimbine hydrochloride (10^-5 M): 43.1 ± 16.0%

## COc1cc2c(CCNC(C)=O)c(Br)[nH]c2cc1Br [compound 6, N-acetyl-2,6-dibromo-5-methoxyindole-3-ethaneamine]
[1]
  Reaction (%): relaxant effect relative to the maximum relaxation to yohimbine hydrochloride (10^-5 M): 64.0 ± 4.1%

## COc1ccc2[nH]c(Br)c(CCNC(C)=O)c2c1Br [compound 7, N-acetyl-2,4-dibromo-5-methoxyindole-3-ethaneamine]
[1]
  Reaction (%): relaxant effect relative to the maximum relaxation to yohimbine hydrochloride (10^-5 M): 73.5 ± 15.3%

## COc1c(Br)cc2[nH]c(Br)c(CCNC(C)=O)c2c1Br [compound 8, N-acetyl-2,4,6-tribromo-5-methoxyindole-3-ethaneamine]
[1]
  Reaction (%): relaxant effect relative to the maximum relaxation to yohimbine hydrochloride (10^-5 M): 85.6 ± 12.0%

## COc1c(Br)cc2c(c1Br)c(CCNC(C)=O)c(Br)n2C(C)=O [compound 9, N,1-diacetyl-2,4,6-tribromo-5-methoxyindole-3-ethaneamine]
[1]
  Reaction (%): relaxant effect relative to the maximum relaxation to yohimbine hydrochloride (10^-5 M): 97.6 ± 2.4%

## O=C(NCCc1c[nH]c2ccccc12)C1CC1 [compound 10, N-cyclopropylcarbonylindole-3-ethaneamine]
[1]
  Reaction (%): relaxant effect relative to the maximum relaxation to yohimbine hydrochloride (10^-5 M): 21.4%

## O=C(NCCc1cn(O)c2ccccc12)C1CC1 [compound 11, 1-hydroxy-N-cyclopropylcarbonylindole-3-ethaneamine]
[1]
  Reaction (%): relaxant effect relative to the maximum relaxation to yohimbine hydrochloride (10^-5 M): 15.7 ± 6.8%

## CCCCC(=O)NCCc1c[nH]c2ccccc12 [compound 12, N-pentanoylindole-3-ethaneamine]
[1]
  Reaction (%): relaxant effect relative to the maximum relaxation to yohimbine hydrochloride (10^-5 M): 26.9 ± 11.4%

## CCCCC(=O)NCCc1cn(O)c2ccccc12 [compound 13, 1-hydroxy-N-pentanoylindole-3-ethaneamine]
[1]
  Reaction (%): relaxant effect relative to the maximum relaxation to yohimbine hydrochloride (10^-5 M): 25.6 ± 6.0%

## CCCCCCC(=O)NCCc1c[nH]c2ccccc12 [compound 14, N-heptanoylindole-3-ethaneamine]
[1]
  Reaction (%): relaxant effect relative to the maximum relaxation to yohimbine hydrochloride (10^-5 M): 70.0 ± 6.9%

## CCCCCCC(=O)NCCc1cn(O)c2ccccc12 [compound 15, 1-hydroxy-N-heptanoylindole-3-ethaneamine]
[1]
  Reaction (%): relaxant effect relative to the maximum relaxation to yohimbine hydrochloride (10^-5 M): 66.2 ± 13.9%

## CCCCCCCCC(=O)NCCc1c[nH]c2ccccc12 [compound 16, N-nonanoylindole-3-ethaneamine]
[1]
  Reaction (%): relaxant effect relative to the maximum relaxation to yohimbine hydrochloride (10^-5 M): 80.7 ± 2.5%
[2]; after nine months
  erection: became equal to that in their newly-married days
  hair regrowth: approximately half the hairs in the whole head except for the left frontal part of the temporal region were black hairs
  muscle ache after jogging: rapidly disappeared in one day
  skin tone and complexion: improved
[2]; after one month
  erection: considerably improved
  memory: memory was improved
  muscle ache after jogging: slight
[2]; [3]
  growth of the black hairs: approximately 0.5 mm per day
  hair regrowth: black hairs were observed to grow in the scalp of the frontal part of the parietal region that had no hair
[2]; after three months
  erection: improved
  hair regrowth: Many black hairs were observed to grow throughout the head except for the left frontal part of the temporal region
  memory: memory and retentive powers were recovered
  time until muscle ache after jogging disappeared: 2 days
[2]; person, 1 mg two doses per day
  duration of dilation of cutaneous and penile blood vessels: approximately 10 hours

## CCCCCCCCC(=O)NCCc1cn(O)c2ccccc12 [compound 17, 1-hydroxy-N-nonanoylindole-3-ethaneamine]
[1]
  Reaction (%): relaxant effect relative to the maximum relaxation to yohimbine hydrochloride (10^-5 M): 79.0 ± 13%

## O=C(CCCc1c[nH]c2ccccc12)NC12CC3CC(CC(C3)C1)C2 [compound 18, N-adamantyl-4-(indole-3-yl)butaneamide]
[1]
  Reaction (%): relaxant effect relative to the maximum relaxation to yohimbine hydrochloride (10^-5 M): 58.6 ± 10.6%

## O=C(CCCc1c[nH]c2ccccc12)NC12CC3CC(CC(C3)C1)C2 [compound 23, N-adamantyl-4-(indole-3-yl)butaneamide]
[1]
  Reaction (%): relaxant effect relative to the maximum relaxation to yohimbine hydrochloride (10^-5 M): 91.5 ± 1.32%

## N-adamantyl-2-(1-hydroxyindole-3-yl)acetamide [compound 22]
[1]
  Reaction (%): relaxant effect relative to the maximum relaxation to yohimbine hydrochloride (10^-5 M): 100.0 ± 0.00%

## N-adamantyl-2-(indole-3-yl)acetamide [compound 20]
[1]
  Reaction (%): relaxant effect relative to the maximum relaxation to yohimbine hydrochloride (10^-5 M): 64.2 ± 8.70%

## N-adamantyl-3-(indole-3-yl)propaneamide [compound 19]
[1]
  Reaction (%): relaxant effect relative to the maximum relaxation to yohimbine hydrochloride (10^-5 M): 60.6 ± 20.7%

## N-adamantyl-4-(1-hydroxyindole-3-yl)butaneamide [compound 21]
[1]
  Reaction (%): relaxant effect relative to the maximum relaxation to yohimbine hydrochloride (10^-5 M): 87.7 ± 8.53%
